This test relates to CEM cells HIV-1 protection, formazan growth assay. The test can be described thus: NCI AIDS Antiviral Assay. Particulars: for IC50: measured here: growth of uninfected CEM cells. Put shortly: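 Category rules: moderately active means at least 50% protection on retest, and confirmed active means 100% protection reproducibly. The underlying data came from a formazan growth assay in HIV-1-infected CEM cells.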

The source made the active and inactive calls.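 How the source made its calls: active means compounds giving half or more protection of infected cells from virus-caused growth loss, again on retest; inactive means the rest.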 Where only a bound is given, the exact number is not on record here.

Broadly, the EC50 is the concentration that produces a half-maximal response. A word on the IC50: it is the point on the concentration scale where inhibition reaches its midpoint. `COc1ccc(-c2cc(=O)cc(C(N)=O)o2)cc1`: the EC50 was more than 200 µM and the IC50 is more than 200 µM.
As to `CC1(C)C2CCC13CS(=O)(=O)N=C3C2` (centres undefined), the outcome was inactive.
For the compound `Cc1ccccc1C1N=C2Oc3ccccc3C=C2C(=O)N1` (centres undefined), the EC50 was more than 100 µM and the half-maximal inhibitory concentration (IC50) was 1.41 µM.
Take `CC(=O)Oc1ccc2ccccc2c1Br`: the EC50 is more than 200 µM and the IC50 turned out to be 112 µM.
As to `Nc1nc(Cl)nc2c1ncn2C1CC(O)C(CO)O1` (centres undefined), the EC50 is more than 631 µM and the IC50 was 3.09 µM.
In the case of `O=C1C(I)=CC(=C(c2cc(I)c(O)c(I)c2)c2ccccc2C(=O)O)C=C1I`, the outcome was inactive.
With `N#CC=Cc1ccc([N+](=O)[O-])s1` (mixture of isomers), the EC50 is more than 2 µM and the IC50 turned out to be 0.166 µM.
On to `O=C(Nc1cc(Cl)c(Cl)cc1Cl)C(=O)C1C=CCS1(=O)=O` (centres undefined), for which the EC50 is more than 51.3 µM and the IC50 was more than 51.3 µM.
Turning to `Cc1cc(C)n(-c2nc(C)c(CCO)c(=O)[nH]2)n1`, the outcome was inactive.
For the compound `COc1ccc2c(O)c(Cl)c(=O)oc2c1`, the EC50 was more than 200 µM and the IC50 was more than 200 µM.
In the case of `NC(=O)NNc1nc2ccccc2c(=O)n1NC(=O)C(=O)Nc1ccc(Cl)cc1Cl`, the EC50 was more than 79.4 µM and the IC50 is more than 79.4 µM.
On to `C=CC1(C)CCC2=C(CCC3C(C)(C(=O)OC)CCCC23C)C1=O` (centres undefined), for which the EC50 was more than 200 µM and the IC50 was 28.8 µM.
For `O=C(OCC1OC(n2nc(Cn3nnc(-c4cccnc4)n3)n(-c3cccc4ccccc34)c2=S)C(OC(=O)c2ccccc2)C1OC(=O)c1ccccc1)c1ccccc1` (centres undefined), the EC50 was more than 100 µM and the IC50 is more than 100 µM.
In the case of `CCOC(=O)[C@H]1Nc2ccc(C)cc2C2c3ccccc3CC21` (some centres undefined), the EC50 is more than 17 µM and the IC50 is more than 17 µM.
For `CCOC(=O)NC(NCC(O)c1ccccc1)(C(F)(F)F)C(F)(F)F` (centres undefined), the EC50 was more than 200 µM and the IC50 was determined as 174 µM.
As for `COc1ccc2nc3cc(Cl)ccc3c(Sc3ccc(NC(C)=O)cc3)c2c1`, the EC50 was more than 12.6 µM and the IC50 was more than 12.6 µM.
As for `Cc1cc(C)c(NS(=O)c2cccc(C(F)(F)F)c2)c(C)c1` (centres undefined), the EC50 is more than 110 µM and the IC50 was more than 110 µM.
Turning to `O=C1c2c(c3c4ccccc4n(CC4CO4)c3c3[nH]c4ccccc4c23)C(=O)N1Cc1ccccc1` (centres undefined), the outcome was inactive.
Regarding `Cc1cc(S(=O)(=O)Nc2nc(N)n(C)n2)c(S)cc1Cl`, the EC50 was more than 200 µM and the IC50 was more than 200 µM.
In the case of `CC[C@]1(O)CC[C@H]2[C@@H]3CCC4=CC(=O)CC[C@@H]4[C@H]3CC[C@@]21CC`, the EC50 is more than 200 µM and the IC50 came out at 49 µM.
With `O=C(N/N=C/c1ccccc1S(=O)(=O)O)C(=O)N/N=C/c1ccccc1S(=O)(=O)O`, the EC50 is more than 200 µM and the IC50 was more than 200 µM.
With `O=[N+]([O-])c1ccc(NS(=O)(=O)C(F)(F)F)cc1`, the EC50 is more than 200 µM and the IC50 was more than 200 µM.
Take `CC(C)(C)n1c(=O)n2c(-c3ccccc3)c(-c3ccccc3)n2c1=O`: the EC50 is more than 200 µM and the IC50 was determined as 25.7 µM.
For `CC[C@@H]1CC2CN3CCc4c([nH]c5cc(OC)c(OC)cc45)C(C(=O)OC)(C2)C13` (some centres undefined), the outcome was inactive.
For the compound `CN(C(=O)CC(=O)CP(=O)(c1ccccc1)c1ccccc1)c1ccccc1`, the EC50 is more than 200 µM and the IC50 turned out to be 135 µM.
For the compound `O=[N+]([O-])c1cc(F)ccc1S(=O)(=O)c1ccccc1`, the EC50 was more than 200 µM and the IC50 amounted to 35.5 µM.
For the compound `CCOC(=O)C1(C(=O)OCC)CSC1`, the EC50 is more than 309 µM and the IC50 is more than 309 µM.
In the case of `COC(=O)c1cc(C#N)[nH]c1-c1ccc(C)s1`, the EC50 is more than 200 µM and the IC50 turned out to be 35.5 µM.
On the same counts, the results for `CSC1=C(C(=O)Nc2ccc(Cl)cc2)C(N)=NC1=O` are more than 100 µM and 74.1 µM.
Turning to `O=CCCCCCOCc1ccccc1`, the EC50 was more than 200 µM and the IC50 worked out at 3.47 µM.
In the case of `CSC1=NN(C)C2(CCCCC2)C(=O)N1`, the EC50 is 13.8 µM and the IC50 was determined as 575 µM.
Turning to `CC(=O)OCC1OC(N=[N+]=[N-])C(OC(C)=O)C(OC(C)=O)C1OC1OC(COC(C)=O)C(OC(C)=O)C(OC(C)=O)C1OC(C)=O` (centres undefined), the EC50 is more than 53.7 µM and the IC50 was more than 53.7 µM.
Consider `FC(F)(F)c1ccc(C2ON=C(c3ccccc3)N2C23CC4CC(CC(C4)C2)C3)cc1` (centres undefined), for which the EC50 was more than 200 µM and the IC50 is more than 200 µM.
`OC(Cc1cccc2ccccc12)CN1CCC(c2ccccc2)CC1` (centres undefined): the EC50 was more than 93.3 µM and the IC50 is 28.8 µM.
Take `Cc1nn(C)c2nc(=O)n(C)c(=O)c-2[n+]1[O-]`: the EC50 was more than 200 µM and the IC50 was 26.9 µM.
For `CC(O)C1(CNc2cc(Cl)nc(N)n2)CCCC1` (centres undefined), the EC50 was more than 200 µM and the IC50 was found to be 74.1 µM.
Take `CC1(C)C(=O)N(O)C(C)(C)N1N=O`: the EC50 is more than 200 µM and the IC50 was more than 200 µM.
For `C=C1CCC(OC(C)=O)C2(C)C(OC(C)=O)CC3OC3(C)C2C(OC(C)=O)C2C(C)C(=O)OC2C1Cl` (centres undefined), the EC50 was more than 200 µM and the IC50 is more than 200 µM.
With `CCCCc1cc(=O)oc2c3c(c4c(c12)OC(C)(C)C=C4)O[C@H](C)[C@@H](C)[C@H]3O`, the EC50 was more than 63.1 µM and the IC50 came to 15.5 µM.
Consider `CCOC(O)(NC(=O)C(C(F)(F)F)C(F)(F)F)C(F)(F)F` (centres undefined), for which the EC50 is more than 200 µM and the IC50 is more than 200 µM.
Turning to `NCC1OC(OC2C(CO)OC(OC3C(O)C(N)CC(N)C3OC3OC(CO)C(O)C(O)C3N)C2O)C(N)C(O)C1O` (centres undefined), the result was inactive.
As to `CC1CN1C(=O)NCCCCCCNC(=O)N1CC1C` (centres undefined), the EC50 was more than 200 µM and the IC50 was determined as 4.79 µM.
Turning to `Cc1cn(C2CC(OC=O)C(CO)O2)c(=O)[nH]c1=O` (centres undefined), the EC50 was more than 5750 µM and the IC50 was found to be 61.7 µM.
For the compound `Cc1nn(C(=O)Cc2ccccc2)c2c1C(c1ccc(O)cc1)SC(N)=N2` (centres undefined), the 50% effective concentration (EC50) was 83.2 µM and the IC50 was more than 200 µM.
On the same counts, the results for `CC(C)(C)C(=O)OCC1CCC(n2cnc3c(=O)[nH]c(N)nc32)O1` (centres undefined) are more than 15.5 µM and more than 15.5 µM.
As for `Cc1ccc(S(=O)(=O)N2CCSCCSCCSCCSCC2)cc1`, the EC50 is more than 12 µM and the IC50 is more than 12 µM.
Regarding `Cc1cc(C)n2c(nc3ccccc32)c1C#N`, the EC50 was more than 200 µM and the IC50 is 148 µM.
`C1CN(SSN2CCSCC2)CCS1`: the EC50 is more than 5.37 µM and the IC50 was more than 5.37 µM.
Regarding `CCC(=O)N/N=C(\C=C\c1cccc(O)c1)c1sc(Nc2ccc(C)cc2[N+](=O)[O-])nc1C`, the EC50 is more than 77.6 µM and the IC50 was more than 77.6 µM.
As to `Cc1ccc(S(=O)(=O)Nc2cccc(C)c2C)cc1`, the result was inactive.
Consider `COc1ccc(NC(=S)Nc2c(C)n(C)n(-c3ccccc3)c2=O)cc1`, for which the EC50 is more than 200 µM and the half-inhibitory concentration (IC50) is more than 200 µM.
As for `CCOC(=O)C1C(c2ccc(OC)cc2)c2c([nH][nH]c2=O)CC1(C)O` (centres undefined), the EC50 was more than 200 µM and the IC50 was more than 200 µM.
Regarding `CCCCCCCCCCCCCCCCOC1OC(COC(C)=O)C(OC(C)=O)C(OC(C)=O)C1OC(C)=O` (centres undefined), the EC50 is more than 12.6 µM and the IC50 is more than 12.6 µM.

The values are drawn from PubChem BioAssay AID179 (DTP/NCI, 2004).
